The values that follow come from patent publication US8535693B2, “Topical formulation(s) for the treatment of inflammation, skin and mucosal disorders and other diseases thereof” (Laila Pharmaceuticals Private Limited, priority 2008, dated 2013).

A short description of data set [1]: Particle size distribution study (Malvern particle size analyzer, laser diffraction). It counts as physicochemical. The settings on record: nanoemulsified vs unformulated. The method, then:
This study proves that a curcumin molecule which is originally 374 nm in the unformulated form is emulsified into 8-11 nm sized particles through a unique process, which has been indicated for this enhanced transport and efficacy of curcumin through the formulation. The study was conducted using Malvern particle size analyzer. The map of scattering intensity versus angle is the primary source of information used to calculate the particle size. The scattering of particles is accurately predicted by the Mie scattering model allowing accurate sizing across the widest possible dynamic range. During the laser diffraction measurement, particles are passed through a focused laser beam. These particles scatter light at an angle that is inversely proportional to their size. The angular intensity of the scattered light is then measured by a series of photosensitive detectors. The advantage of this study is that there is no sample preparation involved. […] Additional peaks can be observed which is contributed by the high molecular weight excipients used to prepare the formulation.

The subject of another data set is phosphorylase kinase. The settings on record: Reddy & Aggarwal, FEBS Lett 1994; cited from earlier work.
A further data set deals with psoriasis. The settings on record: Heng et al., Br J Dermatol 2000; cited from earlier work.
For data set [2], the system named is TNFα-induced gene expression in Human Microvascular Endothelial Cells (HMEC). As to the kind of experiment: Microarray study of TNFα-induced gene expression in HMEC. Type of data set: cell-based. As for the experimental part:
Effects of BDMC/Curcumin/Curcuminoids were Studied in TNFα-Induced Gene Expression in Human Microvascular Endothelial Cells (HMEC):
Micro array analysis was carried out to identify the sets of gene differentially expressed in TNFα treated endothelial cells pretreated/not pretreated with demethylated curcuminoids (BMDC, curcumin)/with curcuminoids. Data acquisition and image processing were performed using GCOS (Gene Chip Operating Software, Affymetrix). Genes that were >2.0 fold up regulated in TNFα-treated group compared to TNFα untreated control group were selected and subjected to hierarchical clustering. […] These sub-clusters were subjected to further functional analysis using DAVID (Database for Annotation, Visualization and Integrated Discovery NIAID, NIH) (FIG. 10, 11). Major known pathways (KEGG, Kyoto Encyclopedia of Genes and Genomes) identified in each of the cluster have been illustrated as pathway maps marking the candidate genes.
GeneChip™ screening of TNFα-inducible transcriptome of HMEC identified 1195 probe sets that were induced by a magnitude of two-fold or higher.

SMILES strings stand for the structures.

As for `COc1cc(/C=C/C(=O)CC(=O)/C=C/c2ccc(O)c(OC)c2)ccc1O` [curcumin], the particle size is 374 nm in data set [1] and 373 nm in data set [1] (listed as unformulated curcumin 98%). For the same compound, the phosphorylase kinase inhibition result in the data set with phosphorylase kinase was “selective phosphorylase kinase inhibitor”. Also, the resolution of psoriasis entry in the data set with psoriasis is given as “leads to resolution of psoriasis”.
`O=C(/C=C/c1ccc(O)c(O)c1)CC(=O)/C=C/c1ccc(O)c(O)c1` [bis-O-demethyl curcumin, Bis-O-Demethyl curcumin]: the “effect on TNFα” value in data set [2] (HMEC challenged with TNFα) is recorded as “antagonizing effects on TNFα”. The “number of TNFα inducible genes sensitive to the substance” value in data set [2] (microvascular endothelial cells challenged with TNFα, 1195 probe sets induced two-fold or higher) turned out to be 1065 genes.
